Results from ChEMBL document CHEMBL4627344, “Synthesis, biological evaluation and virtual screening of some acridone derivatives as potential anticancer agents” (2020).

Key:
Format in all cases: functional
[1] = test system: SR; assay: Antiproliferative activity against human SR cells assessed as inhibition of cell growth at 10 uM measured after 48 hrs by SRB assay relative to control; conditions: read-out: GI
[2] = test system: ACHN; assay: Antiproliferative activity against human ACHN cells assessed as inhibition of cell growth at 10 uM measured after 48 hrs by SRB assay relative to control; conditions: read-out: GI
[3] = test system: HCT-15; assay: Antiproliferative activity against human HCT15 cells assessed as inhibition of cell growth measured after 48 hrs by SRB assay; conditions: HCT-15, 48 h
[4] = test system: NCI-H460; assay: Antiproliferative activity against human NCI-H460 cells assessed as inhibition of cell growth at 10 uM measured after 48 hrs by SRB assay relative to control; conditions: NCI-H460, 48 h, read-out: GI
[5] = test system: OVCAR-8; assay: Antiproliferative activity against human OVCAR8 cells assessed as inhibition of cell growth at 10 uM measured after 48 hrs by SRB assay relative to control; conditions: OVCAR-8, 48 h, read-out: GI
[6] = test system: A549; assay: Antiproliferative activity against human A549 cells assessed as inhibition of cell growth at 10 uM measured after 48 hrs by SRB assay relative to control; conditions: A549, 48 h, read-out: GI
[7] = test system: NCI-H460; assay: Antiproliferative activity against human NCI-H460 cells assessed as inhibition of cell growth measured after 48 hrs by SRB assay; conditions: NCI-H460, 48 h
[8] = test system: SN12C; assay: Antiproliferative activity against human SN12C cells assessed as inhibition of cell growth at 10 uM measured after 48 hrs by SRB assay relative to control; conditions: read-out: GI
[9] = test system: COLO 205; assay: Antiproliferative activity against human COLO205 cells assessed as inhibition of cell growth measured after 48 hrs by SRB assay; conditions: COLO 205, 48 h
[10] = test system: PC-3; assay: Antiproliferative activity against human PC3 cells assessed as inhibition of cell growth measured after 48 hrs by SRB assay; conditions: PC-3, 48 h
[11] = test system: HT-29; assay: Antiproliferative activity against human HT-29 cells assessed as inhibition of cell growth at 10 uM measured after 48 hrs by SRB assay relative to control; conditions: HT-29, 48 h, read-out: GI
[12] = test system: HCC 2998; assay: Antiproliferative activity against human HCC2998 cells assessed as inhibition of cell growth at 10 uM measured after 48 hrs by SRB assay relative to control; conditions: HCC 2998, 48 h, read-out: GI
[13] = test system: EKVX; assay: Antiproliferative activity against human EKVX cells assessed as inhibition of cell growth measured after 48 hrs by SRB assay
[14] = test system: SK-MEL-5; assay: Antiproliferative activity against human SK-MEL-5 cells assessed as inhibition of cell growth at 10 uM measured after 48 hrs by SRB assay relative to control; conditions: SK-MEL-5, 48 h, read-out: GI
[15] = test system: NCI-H322M; assay: Antiproliferative activity against human NCI-H322M cells assessed as inhibition of cell growth measured after 48 hrs by SRB assay
[16] = test system: COLO 205; assay: Antiproliferative activity against human COLO205 cells assessed as inhibition of cell growth at 10 uM measured after 48 hrs by SRB assay relative to control; conditions: COLO 205, 48 h, read-out: GI
[17] = test system: SR; assay: Antiproliferative activity against human SR cells assessed as inhibition of cell growth measured after 48 hrs by SRB assay
[18] = test system: DU-145; assay: Antiproliferative activity against human DU145 cells assessed as inhibition of cell growth measured after 48 hrs by SRB assay; conditions: DU-145, 48 h
[19] = test system: K562; assay: Antiproliferative activity against human K562 cells assessed as inhibition of cell growth at 10 uM measured after 48 hrs by SRB assay relative to control; conditions: K562, 48 h, read-out: GI
[20] = test system: NCI-H23; assay: Antiproliferative activity against human NCI-H23 cells assessed as inhibition of cell growth measured after 48 hrs by SRB assay; conditions: NCI-H23, 48 h
[21] = test system: SF-268; assay: Antiproliferative activity against human SF268 cells assessed as inhibition of cell growth measured after 48 hrs by SRB assay; conditions: SF-268, 48 h
[22] = test system: Malme-3M; assay: Antiproliferative activity against human MALME-3M cells assessed as inhibition of cell growth measured after 48 hrs by SRB assay
[23] = test system: TK-10; assay: Antiproliferative activity against human TK10 cells assessed as inhibition of cell growth measured after 48 hrs by SRB assay; conditions: TK-10, 48 h
[24] = test system: OVCAR-4; assay: Antiproliferative activity against human OVCAR4 cells assessed as inhibition of cell growth measured after 48 hrs by SRB assay; conditions: OVCAR-4, 48 h
[25] = test system: HOP-92; assay: Antiproliferative activity against human HOP92 cells assessed as inhibition of cell growth measured after 48 hrs by SRB assay; conditions: HOP-92, 48 h
[26] = test system: HCC 2998; assay: Antiproliferative activity against human HCC2998 cells assessed as inhibition of cell growth measured after 48 hrs by SRB assay; conditions: HCC 2998, 48 h

SMILES | inhibition of growth at 10 µM [1] | inhibition of growth at 10 µM [2] | GI50 [3] | inhibition of growth at 10 µM [4] | inhibition of growth at 10 µM [5] | inhibition of growth at 10 µM [6] | GI50 [7] | inhibition of growth at 10 µM [8] | GI50 [9] | GI50 [10] | inhibition of growth at 10 µM [11] | inhibition of growth at 10 µM [12] | GI50 [13] | inhibition of growth at 10 µM [14] | GI50 [15] | inhibition of growth at 10 µM [16] | GI50 [17] | GI50 [18] | inhibition of growth at 10 µM [19] | GI50 [20] | also measured
COc1ccc2nc3c(cc2c1)C(=O)CC(C(F)(F)F)C3 (centres undefined) | 83.6% | 50.8% | 1370 nM | 89.5% | 60% | 60.7% | 2610 nM | 57.9% | 1160 nM | 835 nM | 89.1% | 16% | 4190 nM | 68.6% | 1320 nM | 90.9% | 217 nM | 849 nM | 83.2% | 5150 nM | –
O=C1CC(c2ccccc2)Cc2nc3c(Br)cc(Br)cc3cc21 (centres undefined) | 80.5% | 70.3% | 312 nM | 97.7% | 96% | – | 42.3 nM | 60.5% | 152 nM | 66.6 nM | 91.7% | 93.5% | 391 nM | 118% | 74.8 nM | 148% | 91.3 nM | 82.6 nM | 86.8% | 260 nM | GI50 [21]: 167 nM; GI50 [22]: 119 nM; GI50 [23]: 700 nM; GI50 [24]: 1410 nM; GI50 [25]: 66.8 nM; GI50 [26]: 282 nM
COc1ccc2nc3c(cc2c1)C(=O)CC(c1ccccc1)C3 (centres undefined) | 82.3% | 56.1% | 2680 nM | 91.2% | 61% | 65.2% | 1710 nM | 59.3% | 608 nM | 715 nM | 90% | 8.74% | 5920 nM | 69.8% | 5780 nM | 98.1% | 322 nM | 593 nM | 86.8% | 6180 nM | –
O=C1CC(c2ccccc2)Cc2nc3ccc(Br)cc3cc21 (centres undefined) | 86.9% | 65.7% | 528 nM | 95.4% | 75.9% | 76.2% | 344 nM | 67.8% | 261 nM | 254 nM | 97.8% | 73% | 756 nM | 97.9% | 623 nM | 136% | 56.7 nM | 274 nM | 93.9% | 616 nM | GI50 [21]: 3450 nM; GI50 [22]: 94.9 nM; GI50 [26]: 2580 nM
O=C1CC(c2ccccc2)Cc2nc3ccc(Cl)cc3cc21 (centres undefined) | 87% | 69.2% | 588 nM | 96.7% | 77.6% | 76.7% | 345 nM | 71.8% | 346 nM | 280 nM | 95.6% | 94.7% | 607 nM | 114% | 720 nM | 132% | 53.2 nM | 334 nM | 79.3% | 517 nM | GI50 [26]: 2890 nM
